{"source": "paper PMC11628397", "about": "(Nature Synthesis, 2024)", "key": {"[1]": {"experiment": "kinetic solubility in phosphate-buffered saline, pH 7.4", "type": "physicochemical", "conditions": "pH 7.4, aqueous buffer, kinetic from dmso stock"}, "[2]": {"experiment": "metabolic stability in human liver microsomes"}, "[3]": {"tested_on": "human cancer cell line MCF-7", "experiment": "resazurin reduction assay, growth inhibition of MCF-7", "type": "cell-based", "conditions": "MCF7, read-out: IC50, inhibition of the growth of MCF-7"}, "[4]": {"tested_on": "human cancer cell line MCF-7", "conditions": "MCF-7 human cancer cell line; cited from earlier work"}, "MCF-7 cells": {"tested_on": "MCF-7 cells", "conditions": "cited from earlier work"}}, "data": [{"smiles": "CCOC(=O)c1ccc(N)cc1", "note": "[Benzocaine]", "values": [{"measurement": "solubility kinetic", "setting": "[1]", "value": 385, "unit": "µM"}, {"measurement": "CLint, metabolic stability (as printed in text)", "setting": "[2]", "value": 83, "unit": "mg/min/µL"}]}, {"smiles": "CC(C)(C)c1ccc(CN2CCN(C(c3ccccc3)c3ccc(Cl)cc3)CC2)cc1", "note": "(stereo not drawn) [Buclizine]", "values": [{"measurement": "IC50", "setting": "[3]", "value": "31.3 ± 7.8", "unit": "µM"}, {"measurement": "solubility kinetic", "setting": "[1]", "value": "≤ 1", "unit": "µM"}, {"measurement": "effect on cell growth (in words)", "setting": "[4]", "value": "cytostatic effect"}, {"measurement": "cell differentiation, intracellular lipid droplets (in words)", "setting": "MCF-7 cells", "value": "induced cell differentiation"}]}]}
